Data on three compounds can be found in article PMC10669340, “Bioactive Compounds from an Endophytic Pezicula sp. Showing Antagonistic Effects against the Ash Dieback Pathogen” (Biomolecules, 2023).

Series [1] has as its system H. fraxineus (isolate RH02-T6-B4-2). Nature of the series: Agar disc diffusion assay. In kind it is cell-based, Hymenoscyphus fraxineus. The following applies: 6 mm disc, 7 days, 21 °C, n.i.: no inhibition. As for the experimental part: The antifungal activity of the isolated compounds against H. fraxineus was assessed by the disc diffusion method using 9 cm diameter petri dishes as previously described […] Three sterile filter paper discs per plate were gently placed on dried potato–dextrose agar. The fungicide nystatin was applied as the positive control (20 and 50 µg/paper disc) and methanol as the negative control (10 µL/paper disc). The test plates were incubated at 21 °C for 7 days, the inhibition diameters were measured, and the activity was evaluated compared to nystatin.
Figure S44: Agar disc (6 mm diam.) diffusion assay of compound CJ-17,572 (1) against H. fraxineus RH02-T6-B4-2, grown in 9-cm petri dishes on agar-based PD
medium with H. fraxineus, N - positive control nystatin, M - negative control methanol, CJ – 1.
Table S1. Antifungal activity of the compounds 1-6. n.i.: no inhibition, n.t.: not tested.
Compounds Amount ( µg/paper disc)
Peziculastatin n.t. n.i. 8 mm
Mycorrhizin A 19 mm 31 mm n.t.
Cryptosporioptide A n.t. n.i. n.i.
Cryptosporioptide B n.t. n.i. 8 mm
Cryptosporioptide C n.t. n.i. n.i.
Nystatin 21 mm 24 mm n.t.

The next series is described as follows: MTT cytotoxicity assay. In kind it is cell-based. As to conditions: read-out: Cytotoxic activity (IC50). As for the experimental part:
(§1) The in vitro cytotoxicity assay was performed using the MTT (3-(4,5-dimethylthiayol-2-yl)-2,5-diphenyltetrazolium bromide) test in 96-well microtiter plates as previously described.
In general terms: Tetrazolium dyes change colour on reduction, which living cells bring about.

In series [2] the test system is panel of bacteria and fungi. As to the kind of experiment: Antimicrobial serial dilution assay, whole panel (summary statements). In kind it is cell-based. On the procedure:
(§2) The antimicrobial activity (minimum inhibitory concentration, MIC) of the compounds was determined against Acinetobacter baumannii DSM 30008, Bacillus subtilis DSM 10, Chromobacterium violaceum DSM 30191, Escherichia coli DSM 1116, Mycobacterium smegmatis ATCC 700084, Pseudomonas aeruginosa PA14, Staphylococcus aureus DSM 346, Candida albicans DSM1665, Mucor hiemalis DSM 2656, Pichia anomala DSM 6766, Rhodotorula glutinis DSM 10134 and Schizosaccharomyces pombe DSM 70572 in a serial dilution assay as previously described.

The test system of series [3] is Rhodotorula glutinis DSM 10134. As to the kind of experiment: Antimicrobial serial dilution assay (MIC). The format is cell-based. As to conditions: Rhodotorula glutinis DSM 10134, n.i.: no inhibition. On the procedure: as §2
The subject of series [4] is Staphylococcus aureus DSM 346. Nature of the series: Antimicrobial serial dilution assay (MIC). The format is cell-based. The following applies: Staphylococcus aureus DSM 346, n.i.: no inhibition. As for the experimental part:
as §2

The subject of series [5] is Acinetobacter baumannii DSM 30008. As to the kind of experiment: Antimicrobial serial dilution assay (MIC). As to conditions: n.i.: no inhibition. The format is cell-based. As for the experimental part: as §2
The next series has as its system Candida albicans DSM1665. Nature of the series: Antimicrobial serial dilution assay (MIC). In kind it is cell-based. The following applies: n.i.: no inhibition. On the procedure: as §2
Series [6] has as its system Schizosaccharomyces pombe DSM 70572. Nature of the series: Antimicrobial serial dilution assay (MIC). The format is cell-based. As to conditions: Schizosaccharomyces pombe DSM 70572; n.i.: no inhibition. On the procedure:
as §2

The next series relates to Pichia anomala DSM 6766. As to the kind of experiment: Antimicrobial serial dilution assay (MIC). In kind it is cell-based. As to conditions: Pichia anomala DSM 6766; n.i.: no inhibition. As for the experimental part: as §2
The test system of another series is Mucor hiemalis DSM 2656. As to the kind of experiment: Antimicrobial serial dilution assay (MIC). In kind it is cell-based. As for the experimental part:
as §2

The next series relates to Bacillus subtilis DSM 10. As to the kind of experiment: Antimicrobial serial dilution assay (MIC). The format is cell-based. As to conditions: Bacillus subtilis DSM 10, n.i.: no inhibition. As for the experimental part:
as §2

For series [7], the system named is Chromobacterium violaceum DSM 30191. Nature of the series: Antimicrobial serial dilution assay (MIC). The format is cell-based. The following applies: n.i.: no inhibition. As for the experimental part:
as §2

In series [8] the test system is Pseudomonas aeruginosa PA14. As to the kind of experiment: Antimicrobial serial dilution assay (MIC). The format is cell-based. The following applies: n.i.: no inhibition. As for the experimental part: as §2
The subject of series [9] is Escherichia coli DSM 1116. As to the kind of experiment: Antimicrobial serial dilution assay (MIC). The format is cell-based. As to conditions: n.i.: no inhibition. As for the experimental part:
as §2

Series [10] deals with Mycobacterium smegmatis ATCC 700084. As to the kind of experiment: Antimicrobial serial dilution assay (MIC). In kind it is cell-based. The following applies: Mycobacterium smegmatis ATCC 700084; n.i.: no inhibition. As for the experimental part: as §2
For series [11], the system named is panel of mammalian cell lines. As to the kind of experiment: MTT cytotoxicity assay, panel (summary statements). The following applies: 4–6 only KB3.1 and L929. The format is cell-based. On the procedure:
as §1

In series [12] the test system is Staphylococcus aureus DSM 1104 preformed biofilm. As to the kind of experiment: Biofilm assay, dispersal of preformed biofilm. The format is cell-based. On the set-up: Antibiofilm activity, preformed S. aureus: unit not given here. The following applies: for Antibiofilm activity, preformed S. aureus: (/) no activity. As for the experimental part: Staphylococcus aureus DSM 1104 from −20 °C stock was cultured in 25 mL CASO (Casein–Peptone Soymeal–Peptone; peptone from casein 15 g/L, peptone from soy flour 5 g/L, NaCl 5 g/L, pH 7.3) medium at 37 °C at 100 rpm in 250 mL for 20 h. The precultured suspension of S. aureus was adjusted so that its OD600 matched the turbidity of a 0.001 McFarland standard. S. aureus was incubated in 96-well tissue microtiter plates (TPP tissue culture ref.no 92196, Switzerland) for 24 h at 150 rpm in […] CASO medium with 4% glucose broth. The supernatant was removed from the wells and 150 μL of the respective media (fresh) was added to the wells, together with the serially diluted compounds (250–2 μg/mL). The plates were incubated for a further 24 h at 37 °C. Staining of the biofilms was carried out as described previously. Standard deviation (SD) of two repeats with duplicates each were 10% or less. Methanol (2.5%) and microporenic acid A (250–2 μg/mL) were used as solvent and positive controls. Error bars indicate SD with duplicates in two biological repeats.

The test system of series [13] is Candida albicans DSM 11225 biofilm. As to the kind of experiment: Biofilm assay, inhibition of biofilm formation. The following applies: (/) no activity. The format is cell-based. As for the experimental part: The stock of fungal pathogen Candida albicans DSM 11225 from −20 °C was cultured in 25 mL YPD (Yeast extract Peptone Dextrose; dextrose 20 g/L, peptone 20 g/L, yeast extract 10 g/L) medium in a 250 mL flask at 30 °C with shaking 100 rpm for 18 h. Turbidity of the broth was measured and diluted to match the turbidity of a 0.05 McFarland standard in RPMI 1640 medium (Gibco, New York, NY, USA, Thermo Fisher Scientific). Afterwards, 150 μL of the fungal dispersion was added into each well of a 96-well microtiter plate (Falcon no. 351172, Thermo Fisher Scientific) and further incubated for 90 min. The supernatant was removed, and the plate was washed once by using PBS buffer. Compounds were serially diluted in 150 μL in fresh medium to concentrations of 250–2 μg/mL. Staining and analysis were conducted as previously described. Methanol (2.5%) and farnesol (250–2 μg/mL) were used as solvent and positive controls. Error bars indicate SD with duplicates in two biological repeats.

Where [14] appears, read: human, A431 squamous cell carcinoma cells.
[15] abbreviates: human, A549 lung carcinoma cells.
The mark [16] stands for this setting: human, KB3.1 endocervical adenocarcinoma cells, n.c.: no cytotoxicity.
Setting [17] is: human, MCF-7 breast adenocarcinoma cells.
Setting [18] is: mouse, L929 fibroblast cells, n.c.: no cytotoxicity.

≈ marks a conversion by molar mass, not a printed value. Like-named read-outs stand apart in the source and are kept apart here.

In the case of `CCCCCCC(C)/C=C/C=C/C=C/C(=O)N[C@H](C(=O)O)[C@H](O)c1ccccc1O` (relative stereo) [Compound 2, peziculastatin], the “Antifungal activity, inhibition diameter” value was “n.i” in series [1] (50 µg/paper disc) and 8 mm in series [1] (100 µg/paper disc). Also, the IC50 in “MTT cytotoxicity assay” (setting [14]) was 53 µM; in “MTT cytotoxicity assay” (setting [15]) it was 41 µM; in the series “MTT cytotoxicity assay” (setting [16]), 17 µM; in the series “MTT cytotoxicity assay” (setting [17]) it was 11 µM; in “MTT cytotoxicity assay” (setting [18]), 53 µM. In addition, the “antimicrobial activity against the tested microorganisms (in words)” value in series [2] is listed as “moderate to weak antifungal activity”. In addition, the MIC in series [3] (DSM10134, read-out: Minimum inhibitory concentration (MIC)) came to 33.3 µg/mL (≈ 80.1 µM); in series [4] (DSM346, read-out: Minimum inhibitory concentration (MIC)) it was 16.6 µg/mL (≈ 39.9 µM); in the series with Mucor hiemalis DSM 2656 (DSM2656, Mucor hiemalis DSM 2656, n.i.: no inhibition, read-out: Minimum inhibitory concentration (MIC)) it was 33.3 µg/mL (≈ 80.1 µM); with Bacillus subtilis DSM 10 (DSM10, read-out: Minimum inhibitory concentration (MIC)) it was 33.3 µg/mL (≈ 80.1 µM). In addition, the “Minimum inhibitory concentration (MIC)” value (in series [5]; with Candida albicans DSM1665; in series [6]; in the series with Pichia anomala DSM 6766; in [7]; in series [8]) was “n.i” throughout. Further, the “Minimum inhibitory concentration (MIC)” value in [9] and in series [10] was “n.i” in each case.
With `COC1=C(C(=O)[C@@]2(C)[C@@H](C)C=C[C@H]3C[C@@H](C)CC[C@@H]32)C(=O)[C@H]([C@@H](C)O)N1C` [Compound 8, 2′-methyl-CJ-17,572], in [11], the “cytotoxicity against the tested cell lines (in words)” value is recorded as “active against all the tested cell lines”. Also, the IC50 was found to be 20 µM in the series “MTT cytotoxicity assay” (setting [14]); 35 µM in “MTT cytotoxicity assay” (setting [15]); 15 µM in the series “MTT cytotoxicity assay” (setting [16]); 1.8 µM in the series “MTT cytotoxicity assay” (setting [17]); 18 µM in “MTT cytotoxicity assay” (human, PC-3 prostate cancer cells); 21 µM in the series “MTT cytotoxicity assay” (human, SKOV-3 ovarian carcinoma cells). Moreover, in “MTT cytotoxicity assay” (setting [18]), the IC50 is 43 µM. The “antimicrobial activity against the tested microorganisms (in words)” value in [2] is on record as “did not show any activity”. Moreover, the “Minimum inhibitory concentration (MIC)” value (in series [3]; in series [4]; in [5]; with Candida albicans DSM1665; in series [6]; in the series with Pichia anomala DSM 6766) was “n.i” in each case. In addition, the “Minimum inhibitory concentration (MIC)” value was “n.i” with Mucor hiemalis DSM 2656 (Mucor hiemalis DSM 2656, n.i.: no inhibition); “n.i” with Bacillus subtilis DSM 10; “n.i” in series [7]; “n.i” in series [8]; “n.i” in series [9]; “n.i” in [10].
On to `CCC(C(=O)O)C(=O)OC1C2(C)Oc3ccc(-c4ccc5c(c4O)C(=O)C4=C(O)C6OC6(C)C(OC(=O)C(CC)C(=O)O)C4(C)O5)c(O)c3C(=O)C2=C(O)C2OC21C` (centres unmarked) [Compound 6, Cryptosporioptide C], for which the “Antifungal activity, inhibition diameter” value in series [1] (50 µg/paper disc) and in series [1] (100 µg/paper disc) was “n.i” throughout. Also, the “Antibiofilm activity, preformed S. aureus” value in [12] (2 µg/mL) was 39; in [12] (3.9 µg/mL), 49; in series [12] (7.8 µg/mL), 68; in [12] (15.6 µg/mL), 72; in series [12] (31.3 µg/mL) it was 78; in series [12] (62.5 µg/mL), 78. The “Antibiofilm activity, preformed S. aureus” value came out at 77 in [12] (125 µg/mL) and 23 in [12] (250 µg/mL). Further, the “efficacy of biofilm eradication, preformed biofilms of S. aureus” value in series [12] (concentrations between 15.6 µg/mL–125 µg/mL) was 70–80%. In addition, the “dispersal effects on preformed biofilms of S. aureus” value in [12] (even up to 2 µg/mL) is listed as 40%. Further, the “Minimum inhibitory concentration (MIC)” value (in [3]; in series [4]; in [5]; in the series on Candida albicans DSM1665; in series [6]; in the series on Pichia anomala DSM 6766) was “n.i” throughout. The “Minimum inhibitory concentration (MIC)” value (in the series with Bacillus subtilis DSM 10; in [7]; in series [8]; in series [9]; in [10]) was “n.i” in each case. Further, in the series on Mucor hiemalis DSM 2656 (Mucor hiemalis, DSM2656, read-out: Minimum inhibitory concentration (MIC)), the MIC stood at 66.6 µg/mL (≈ 82.6 µM). Also, the entries for the “Antibiofilm activity, C. albicans” value in [13] (62.5 µg/mL), in series [13] (125 µg/mL) and in [13] (250 µg/mL) were 40, 62 and 78, respectively.

As a reminder, the IC50 is the midpoint of a concentration-inhibition curve.
